Measured values as given in BindingDB's records for doi:10.1021/jm00006a008 (Glaxo Research Institute, 1995).

What was measured:
[1] = Inhibition of bovine topoisomerase I, using cleavable complex assay.
[2] = Inhibitory concentration against topoisomerase I obtained from calf thymus

SMILES | IC50 [1] [µM] | IC50 [2] [µM]
CCC1(O)C(=O)OCc2c1cc1n(c2=O)C/C(=C2\C(=O)N(C)c3ccccc32)C1=O (stereo not drawn) [4-Ethyl-4-hydroxy-7-[1-methyl-2-oxo-1,2-dihydro-indol-(3E)-ylidene]-1,4,7,8-tetrahydro-pyrano[3,4-f]indolizine-3,6,10-trione] | > 100 | –
CCC1(O)C(=O)OCc2c1cc1n(c2=O)C/C(=C2\C(=O)Nc3ccccc32)C1=O (stereo not drawn) [4-Ethyl-4-hydroxy-7-[2-oxo-1,2-dihydro-indol-(3E)-ylidene]-1,4,7,8-tetrahydro-pyrano[3,4-f]indolizine-3,6,10-trione] | 5.8 | –
CCC1(O)C(=O)OCc2c1cc1n(c2=O)C/C(=C2\C(=O)Nc3c2cc(F)c(F)c3F)C1=O (stereo not drawn) [4-Ethyl-4-hydroxy-7-[5,6,7-trifluoro-2-oxo-1,2-dihydro-indol-(3E)-ylidene]-1,4,7,8-tetrahydro-pyrano[3,4-f]indolizine-3,6,10-trione] | > 100 | –
CCC1(O)C(=O)OCc2c1cc1n(c2=O)C/C(=C2\C(=O)Nc3ccc(I)cc32)C1=O (stereo not drawn) [4-Ethyl-4-hydroxy-7-[5-iodo-2-oxo-1,2-dihydro-indol-(3E)-ylidene]-1,4,7,8-tetrahydro-pyrano[3,4-f]indolizine-3,6,10-trione] | 32 | –
CCC1(O)C(=O)OCc2c1cc1n(c2=O)C/C(=C2\C(=O)Nc3ccc([N+](=O)[O-])cc32)C1=O (stereo not drawn) [4-Ethyl-4-hydroxy-7-[5-nitro-2-oxo-1,2-dihydro-indol-(3E)-ylidene]-1,4,7,8-tetrahydro-pyrano[3,4-f]indolizine-3,6,10-trione] | > 100 | –
CCC1(O)C(=O)OCc2c1cc1n(c2=O)C/C(=C2\C(=O)Nc3cc(OC)ccc32)C1=O (stereo not drawn) [4-Ethyl-4-hydroxy-7-[6-methoxy-2-oxo-1,2-dihydro-indol-(3E)-ylidene]-1,4,7,8-tetrahydro-pyrano[3,4-f]indolizine-3,6,10-trione] | > 100 | –
CCC1(O)C(=O)OCc2c1cc1n(c2=O)C/C(=C2\C(=O)Nc3cc4c(cc32)OCCO4)C1=O (stereo not drawn) [4-Ethyl-4-hydroxy-7-[7-oxo-2,3,6,7-tetrahydro-[1,4]dioxino[2,3-f]indol-(8E)-ylidene]-1,4,7,8-tetrahydro-pyrano[3,4-f]indolizine-3,6,10-trione] | 29.6 | –
CCC1(O)C(=O)OCc2c1cc1n(c2=O)Cc2c-1nc1ccc(I)cc1c2C(=O)O (stereo not drawn) [4-Ethyl-4-hydroxy-9-iodo-3,13-dioxo-3,4,12,13-tetrahydro-1H-2-oxa-6,12a-diaza-dibenzo[b,h]fluorene-11-carboxylic acid] | – | 2.3
CCC1(O)C(=O)OCc2c1cc1n(c2=O)Cc2c-1nc1cccc(I)c1c2C(=O)O (stereo not drawn) [4-Ethyl-4-hydroxy-10-iodo-3,13-dioxo-3,4,12,13-tetrahydro-1H-2-oxa-6,12a-diaza-dibenzo[b,h]fluorene-11-carboxylic acid] | – | 1.3
CCC1(O)C(=O)OCc2c1cc1n(c2=O)C/C(=C2\C(=O)Nc3ccc(F)cc32)C1=O (stereo not drawn) [4-Ethyl-7-[5-fluoro-2-oxo-1,2-dihydro-indol-(3E)-ylidene]-4-hydroxy-1,4,7,8-tetrahydro-pyrano[3,4-f]indolizine-3,6,10-trione] | 1.2 | –
CCC1(O)C(=O)OCc2c1cc1n(c2=O)C/C(=C2\C(=O)Nc3c2ccc(F)c3C)C1=O (stereo not drawn) [4-Ethyl-7-[6-fluoro-7-methyl-2-oxo-1,2-dihydro-indol-(3E)-ylidene]-4-hydroxy-1,4,7,8-tetrahydro-pyrano[3,4-f]indolizine-3,6,10-trione] | > 100 | –
CCC1(O)C(=O)OCc2c1cc1n(c2=O)Cc2c-1nc1cc(F)c(F)cc1c2C(=O)O (stereo not drawn) [4-Ethyl-8,9-difluoro-4-hydroxy-3,13-dioxo-3,4,12,13-tetrahydro-1H-2-oxa-6,12a-diaza-dibenzo[b,h]fluorene-11-carboxylic acid] | – | 1.5
CCC1(O)C(=O)OCc2c1cc1n(c2=O)Cc2c-1nc1ccc(F)cc1c2C(=O)O (stereo not drawn) [4-Ethyl-9-fluoro-4-hydroxy-3,13-dioxo-3,4,12,13-tetrahydro-1H-2-oxa-6,12a-diaza-dibenzo[b,h]fluorene-11-carboxylic acid] | – | 3.2
CCC1(O)C(=O)OCc2c1cc1n(c2=O)C/C(=C2\C(=O)Nc3cc(F)c(F)cc32)C1=O (stereo not drawn) [7-[5,6-Difluoro-2-oxo-1,2-dihydro-indol-(3E)-ylidene]-4-ethyl-4-hydroxy-1,4,7,8-tetrahydro-pyrano[3,4-f]indolizine-3,6,10-trione] | 1.5 | –
CCC1(O)C(=O)OCc2c1cc1n(c2=O)C/C(=C2\C(=O)Nc3ccc(Cl)cc32)C1=O (stereo not drawn) [7-[5-Chloro-2-oxo-1,2-dihydro-indol-(3E)-ylidene]-4-ethyl-4-hydroxy-1,4,7,8-tetrahydro-pyrano[3,4-f]indolizine-3,6,10-trione] | > 100 | –
CCC1(O)C(=O)OCc2c1cc1n(c2=O)Cc2c-1nc1cc3c(cc1c2C(=O)O)OCCO3 (stereo not drawn) [8-ethyl-8-hydroxy-9,12-dioxo-2,3,8,9,12,14-hexahydro-11H-[1,4]dioxino[2,3-g]pyrano[3',4':6,7]indolizino[1,2-b]quinoline-15-carboxylic acid] | – | 24.1
CC[C@]1(O)C(=O)OCc2c1cc1n(c2=O)Cc2c-1nc1ccccc1c2C(=O)O [(R)-4-Ethyl-4-hydroxy-3,13-dioxo-3,4,12,13-tetrahydro-1H-2-oxa-6,12a-diaza-dibenzo[b,h]fluorene-11-carboxylic acid] | – | 2.1

SMILES | IC50 [1] [µM] | IC50 [2] [µM]
CC[C@]1(O)C(=O)OCc2c1cc1n(c2=O)C/C(=C2\C(=O)Nc3ccccc32)C1=O [(R)-4-Ethyl-4-hydroxy-7-[2-oxo-1,2-dihydro-indol-(3E)-ylidene]-1,4,7,8-tetrahydro-pyrano[3,4-f]indolizine-3,6,10-trione] | 4 | –
CC[C@]1(O)C(=O)OCc2c1cc1n(c2=O)C/C(=C2\C(=O)Nc3cc(OC(F)(F)F)ccc32)C1=O [(R)-4-Ethyl-4-hydroxy-7-[2-oxo-6-trifluoromethoxy-1,2-dihydro-indol-(3E)-ylidene]-1,4,7,8-tetrahydro-pyrano[3,4-f]indolizine-3,6,10-trione] | > 100 | –
CC[C@]1(O)C(=O)OCc2c1cc1n(c2=O)C/C(=C2\C(=O)Nc3ccc(I)cc32)C1=O [(R)-4-Ethyl-4-hydroxy-7-[5-iodo-2-oxo-1,2-dihydro-indol-(3E)-ylidene]-1,4,7,8-tetrahydro-pyrano[3,4-f]indolizine-3,6,10-trione] | 12.1 | –
CC[C@]1(O)C(=O)OCc2c1cc1n(c2=O)C/C(=C2\C(=O)Nc3ccc(C)cc32)C1=O [(R)-4-Ethyl-4-hydroxy-7-[5-methyl-2-oxo-1,2-dihydro-indol-(3E)-ylidene]-1,4,7,8-tetrahydro-pyrano[3,4-f]indolizine-3,6,10-trione] | 1.8 | –
CC[C@]1(O)C(=O)OCc2c1cc1n(c2=O)C/C(=C2\C(=O)Nc3c2cc(C)cc3[N+](=O)[O-])C1=O [(R)-4-Ethyl-4-hydroxy-7-[5-methyl-7-nitro-2-oxo-1,2-dihydro-indol-(3E)-ylidene]-1,4,7,8-tetrahydro-pyrano[3,4-f]indolizine-3,6,10-trione] | > 100 | –
CC[C@]1(O)C(=O)OCc2c1cc1n(c2=O)C/C(=C2\C(=O)Nc3cc(SC)ccc32)C1=O [(R)-4-Ethyl-4-hydroxy-7-[6-methylsulfanyl-2-oxo-1,2-dihydro-indol-(3E)-ylidene]-1,4,7,8-tetrahydro-pyrano[3,4-f]indolizine-3,6,10-trione] | > 100 | –
CC[C@]1(O)C(=O)OCc2c1cc1n(c2=O)C/C(=C2\C(=O)Nc3c(C)cccc32)C1=O [(R)-4-Ethyl-4-hydroxy-7-[7-methyl-2-oxo-1,2-dihydro-indol-(3E)-ylidene]-1,4,7,8-tetrahydro-pyrano[3,4-f]indolizine-3,6,10-trione] | > 100 | –
CC[C@]1(O)C(=O)OCc2c1cc1n(c2=O)Cc2c-1nc1ccc(C)cc1c2C(=O)O [(R)-4-Ethyl-4-hydroxy-9-methyl-3,13-dioxo-3,4,12,13-tetrahydro-1H-2-oxa-6,12a-diaza-dibenzo[b,h]fluorene-11-carboxylic acid] | – | 1.9
CC[C@]1(O)C(=O)OCc2c1cc1n(c2=O)C/C(=C2\C(=O)Nc3ccc(F)cc32)C1=O [(R)-4-Ethyl-7-[5-fluoro-2-oxo-1,2-dihydro-indol-(3E)-ylidene]-4-hydroxy-1,4,7,8-tetrahydro-pyrano[3,4-f]indolizine-3,6,10-trione] | 1.1 | –
CC[C@]1(O)C(=O)OCc2c1cc1n(c2=O)Cc2c-1nc1ccc(F)cc1c2C(=O)O [(R)-4-Ethyl-9-fluoro-4-hydroxy-3,13-dioxo-3,4,12,13-tetrahydro-1H-2-oxa-6,12a-diaza-dibenzo[b,h]fluorene-11-carboxylic acid] | – | 3.1
CC[C@]1(O)C(=O)OCc2c1cc1n(c2=O)C/C(=C2\C(=O)Nc3cc(F)c(F)cc32)C1=O [(R)-7-[5,6-Difluoro-2-oxo-1,2-dihydro-indol-(3E)-ylidene]-4-ethyl-4-hydroxy-1,4,7,8-tetrahydro-pyrano[3,4-f]indolizine-3,6,10-trione] | 1.3 | –
CC[C@]1(O)C(=O)OCc2c1cc1n(c2=O)C/C(=C2\C(=O)Nc3ccc(Br)cc32)C1=O [(R)-7-[5-Bromo-2-oxo-1,2-dihydro-indol-(3E)-ylidene]-4-ethyl-4-hydroxy-1,4,7,8-tetrahydro-pyrano[3,4-f]indolizine-3,6,10-trione] | > 100 | –
CC[C@]1(O)C(=O)OCc2c1cc1n(c2=O)C/C(=C2\C(=O)Nc3c(Cl)cccc32)C1=O [(R)-7-[7-Chloro-2-oxo-1,2-dihydro-indol-(3E)-ylidene]-4-ethyl-4-hydroxy-1,4,7,8-tetrahydro-pyrano[3,4-f]indolizine-3,6,10-trione] | > 100 | –
CC[C@@]1(O)C(=O)OCc2c1cc1n(c2=O)C/C(=C2\C(=O)Nc3ccccc32)C1=O [(S)-4-Ethyl-4-hydroxy-7-[2-oxo-1,2-dihydro-indol-(3E)-ylidene]-1,4,7,8-tetrahydro-pyrano[3,4-f]indolizine-3,6,10-trione] | > 100 | –
CC[C@@]1(O)C(=O)OCc2c1cc1n(c2=O)C/C(=C2\C(=O)Nc3ccc(F)cc32)C1=O [(S)-4-Ethyl-7-[5-fluoro-2-oxo-1,2-dihydro-indol-(3E)-ylidene]-4-hydroxy-1,4,7,8-tetrahydro-pyrano[3,4-f]indolizine-3,6,10-trione] | > 100 | –
CC[C@@]1(O)C(=O)OCc2c1cc1n(c2=O)Cc2c-1nc1ccc(F)cc1c2C(=O)O [(S)-4-Ethyl-9-fluoro-4-hydroxy-3,13-dioxo-3,4,12,13-tetrahydro-1H-2-oxa-6,12a-diaza-dibenzo[b,h]fluorene-11-carboxylic acid] | – | > 100
